The NIST ThermoML archive (doi:10.1021/je600519p)

Experiment: refractive index (Na D-line) (dimensionless); xn = mol fraction of the nth substance listed
Conditions: 101 kPa, Liquid

CC(=O)c1ccccc1 [acetophenone] + CCOC(=O)OCC
refractive index
Conditions	293.15 K	303.15 K	313.15 K	323.15 K
x2 = 0.0511	1.5269	1.5221	1.5172	1.5123
x2 = 0.1014	1.5201	1.5154	1.5107	1.506
x2 = 0.1501	1.5134	1.5089	1.5043	1.4998
x2 = 0.1996	1.5065	1.5022	1.4976	1.4932
x2 = 0.2465	1.5001	1.4958	1.4913	1.4869
x2 = 0.3041	1.4919	1.4877	1.4833	1.479
x2 = 0.3467	1.4858	1.4817	1.4774	1.4731
x2 = 0.4001	1.4781	1.474	1.4697	1.4656
x2 = 0.4507	1.4707	1.4666	1.4624	1.4583
x2 = 0.4888	1.4651	1.461	1.4568	1.4527
x2 = 0.5506	1.4558	1.4518	1.4475	1.4435
x2 = 0.6038	1.4477	1.4437	1.4395	1.4353
x2 = 0.6498	1.4406	1.4366	1.4323	1.4282
x2 = 0.7104	1.4312	1.4271	1.4228	1.4186
x2 = 0.7513	1.4247	1.4206	1.4164	1.4121
x2 = 0.8078	1.4158	1.4116	1.4072	1.4029
x2 = 0.8522	1.4086	1.4043	1.3999	1.3957
x2 = 0.8993	1.401	1.3966	1.3922	1.3878
x2 = 0.9488	1.3929	1.3884	1.3839	1.3791

CCOC(=O)OCC [diethyl carbonate] + CCCCCCO
refractive index
Conditions	293.15 K	303.15 K	313.15 K	323.15 K
x1 = 0.0502	1.4168	1.4131	1.4089	1.4049
x1 = 0.1123	1.4152	1.4115	1.4075	1.4036
x1 = 0.1499	1.4143	1.4106	1.4065	1.4026
x1 = 0.2103	1.4125	1.4088	1.4047	1.4007
x1 = 0.2508	1.4111	1.4074	1.4034	1.3994
x1 = 0.3121	1.4089	1.4051	1.4011	1.3971
x1 = 0.3576	1.4071	1.4033	1.3992	1.3953
x1 = 0.4113	1.4049	1.4011	1.3969	1.3931
x1 = 0.4632	1.4028	1.3989	1.3947	1.3909
x1 = 0.5111	1.4008	1.3969	1.3927	1.3887
x1 = 0.552	1.3991	1.3952	1.3909	1.3868
x1 = 0.6008	1.3972	1.3931	1.3888	1.3846
x1 = 0.6498	1.3953	1.3911	1.3867	1.3825
x1 = 0.7108	1.3929	1.3887	1.3842	1.3798
x1 = 0.7554	1.3912	1.387	1.3825	1.3779
x1 = 0.8112	1.3894	1.3851	1.3805	1.3758
x1 = 0.8501	1.3883	1.3838	1.3792	1.3745
x1 = 0.9002	1.3869	1.3823	1.3776	1.3729
x1 = 0.9555	1.3855	1.3809	1.3762	1.3714
